Laboratory results taken from ChEMBL document CHEMBL4354827, “Discovery of Novel, Potent, Brain-Permeable, and Orally Efficacious Positive Allosteric Modulator of α7 Nicotinic Acetylcholine Receptor [4-(5-(4-Chlorophenyl)-4-methyl-2-propionylthiophen-3-yl)benzenesulfonamide]: Structure-Activity Relationship and Preclinical Characterization” (J Med Chem, 2020).

Tests used:
[1] = Drug metabolism in dog liver microsomes assessed as metabolic rate at 1 uM preincubated for 5 mins followed by NADPH addition after 30 mins by LC-MS/MS analysis; assay type: ADME, Canis lupus familiaris, Microsome; conditions: 0.5 h
[2] = Metabolic stability in mouse liver microsomes assessed as compound remaining at 1 uM preincubated for 5 mins followed by NADPH addition and measured after 30 mins by LC-MS/MS analysis; assay type: ADME, Microsome; conditions: read-out: Stability
[3] = Protein binding in rat plasma at 5 uM incubated for 16 hrs under shaking condition by LC/MS/MS based rapid equilibrium dialysis method; assay type: ADME, cell-free; conditions: read-out: PPB (converted)
[4] = Protein binding in rat plasma assessed as unbound fraction at 5 uM incubated for 16 hrs under shaking condition by LC/MS/MS based rapid equilibrium dialysis method; assay type: ADME, cell-free
[5] = Protein binding in dog plasma at 5 uM incubated for 16 hrs under shaking condition by LC/MS/MS based rapid equilibrium dialysis method; assay type: ADME, cell-free, Canis lupus familiaris; conditions: read-out: PPB (converted)
[6] = AUClast in BALB/c mouse at 1 mg/kg, iv after 0.083 to 144 hrs by LC-MS/MS analysis; assay type: ADME, organism-based; design: dose 1 mg/kg, time upper 144 hr, time lower 0.083 hr, route intravenous; conditions: in vivo
[7] = Cmax in Beagle dog at 10 mg/kg, po after 0.25 to 144 hrs by LC-MS/MS analysis; assay type: ADME, organism-based, Canis lupus familiaris; design: dose 10 mg/kg, route oral; conditions: in vivo
[8] = Cmax in BALB/c mouse at 10 mg/kg, po after 0.25 to 144 hrs by LC-MS/MS analysis; assay type: ADME, organism-based; design: dose 10 mg/kg, route oral; conditions: in vivo
[9] = Tmax in Beagle dog at 1 mg/kg, iv after 0.083 to 144 hrs by LC-MS/MS analysis; assay type: ADME, organism-based, Canis lupus familiaris; conditions: in vivo
[10] = Tmax in Beagle dog at 10 mg/kg, po after 0.25 to 144 hrs by LC-MS/MS analysis; assay type: ADME, organism-based, Canis lupus familiaris; conditions: in vivo
[11] = Half life in Wistar rat at 10 mg/kg, po after 0.25 to 144 hrs by LC-MS/MS analysis; assay type: ADME, organism-based; conditions: in vivo
[12] = Half life in Beagle dog at 1 mg/kg, iv after 0.083 to 144 hrs by LC-MS/MS analysis; assay type: ADME, organism-based, Canis lupus familiaris; conditions: in vivo
[13] = Oral bioavailability in Beagle dog at 10 mg/kg after 0.25 to 144 hrs by LC-MS/MS analysis; assay type: ADME, organism-based, Canis lupus familiaris; conditions: in vivo
[14] = Drug concentration in Wistar rat brain at 10 mg/kg, po after 8 hrs by LC-MS/MS analysis; assay type: ADME, organism-based; conditions: read-out: Drug uptake
[15] = AUCt in Wistar rat plasma at 10 mg/kg, po after 1 to 144 hrs by LC-MS/MS analysis; assay type: ADME, organism-based
[16] = target: Cytochrome P450 2D6 (Homo sapiens, UniProt P10635); experiment: Inhibition of CYP2D6 (unknown origin) up to 10 uM; assay type: ADME
Chain of Cytochrome P450 2D6 (P10635 whole entry): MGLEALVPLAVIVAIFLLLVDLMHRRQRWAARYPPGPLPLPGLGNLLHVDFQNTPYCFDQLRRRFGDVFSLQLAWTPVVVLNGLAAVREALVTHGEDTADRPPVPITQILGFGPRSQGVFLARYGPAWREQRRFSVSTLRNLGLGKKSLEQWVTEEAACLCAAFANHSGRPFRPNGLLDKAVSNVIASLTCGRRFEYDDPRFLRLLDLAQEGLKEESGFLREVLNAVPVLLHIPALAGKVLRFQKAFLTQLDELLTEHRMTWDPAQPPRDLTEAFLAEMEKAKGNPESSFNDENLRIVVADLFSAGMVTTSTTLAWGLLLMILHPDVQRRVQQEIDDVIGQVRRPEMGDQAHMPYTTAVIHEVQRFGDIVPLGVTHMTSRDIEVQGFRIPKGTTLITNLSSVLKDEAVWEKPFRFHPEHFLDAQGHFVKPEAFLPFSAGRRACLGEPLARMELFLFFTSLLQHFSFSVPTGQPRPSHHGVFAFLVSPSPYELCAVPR

[17] = target: T1, Cytochrome P450 2A6 (Homo sapiens, UniProt P11509); experiment: Inhibition of CYP2A6 (unknown origin) up to 10 uM; assay type: ADME
T1 sequence (P11509 whole entry): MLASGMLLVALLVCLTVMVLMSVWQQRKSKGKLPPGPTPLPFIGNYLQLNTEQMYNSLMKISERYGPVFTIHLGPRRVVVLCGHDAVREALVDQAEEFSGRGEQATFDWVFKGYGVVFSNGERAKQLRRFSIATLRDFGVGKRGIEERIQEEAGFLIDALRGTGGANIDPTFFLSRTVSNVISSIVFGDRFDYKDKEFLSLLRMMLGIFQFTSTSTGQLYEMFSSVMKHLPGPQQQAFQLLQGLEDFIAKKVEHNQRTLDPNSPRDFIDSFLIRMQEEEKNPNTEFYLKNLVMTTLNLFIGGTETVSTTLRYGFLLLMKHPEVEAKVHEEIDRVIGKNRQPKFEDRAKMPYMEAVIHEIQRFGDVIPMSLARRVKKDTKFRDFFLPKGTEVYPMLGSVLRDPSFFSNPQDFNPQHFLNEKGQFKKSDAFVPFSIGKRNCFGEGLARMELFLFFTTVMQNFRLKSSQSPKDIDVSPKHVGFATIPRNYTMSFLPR

[18] = test system: Rattus norvegicus; experiment: Memory enhancement effect in time-delay induced Wistar rat model of amnesia assessed as exploration time for object1 in acquisition trial at 3 mg/kg, po administered as single dose and measured on day 8 by novel object recognition test (reference value: 13.95 sec); assay type: functional
[19] = test system: Rattus norvegicus; experiment: Memory enhancement effect in time-delay induced Wistar rat model of amnesia assessed as exploration time for familiar object in retention trial at 3 mg/kg, po administered as single dose and measured on day 9 by novel object recognition test (reference value: 13.05 sec); assay type: functional
[20] = test system: Rattus norvegicus; experiment: Memory enhancement effect in scopolamine-induced Wistar rat model of amnesia assessed as exploration time for object2 in acquisition trial at 0.15 mg/kg, po administered as single dose and measured on day 8 by novel object recognition test (reference value: 15.63 sec); assay type: functional
[21] = test system: Rattus norvegicus; experiment: Memory enhancement effect in scopolamine-induced Wistar rat model of amnesia assessed as exploration time for object2 in acquisition trial at 0.05 mg/kg, po administered as single dose and measured on day 8 by novel object recognition test (reference value: 15.63 sec); assay type: functional
[22] = test system: Rattus norvegicus; experiment: Memory enhancement effect in scopolamine-induced Wistar rat model of amnesia assessed as exploration time for object2 in acquisition trial at 0.5 mg/kg, po administered as single dose and measured on day 8 by novel object recognition test (reference value: 15.63 sec); assay type: functional
[23] = test system: Rattus norvegicus; experiment: Memory enhancement effect in scopolamine-induced Wistar rat model of amnesia assessed as increase in novel object discrimination index at 0.5 mg/kg, po administered as single dose and measured on day 9 by novel object recognition test (reference value: 0.21); assay type: functional
[24] = test system: Rattus norvegicus; experiment: Memory enhancement effect in time-delay induced Wistar rat model of amnesia assessed as exploration time for novel object at 1 mg/kg, po administered as single dose after acquisition trial by novel object recognition test (reference value: 12.81 sec); assay type: functional
[25] = Drug level in Wistar rat plasma at 0.5 mg/kg, po; assay type: ADME, organism-based; conditions: in vivo
[26] = test system: Rattus norvegicus; experiment: Memory enhancement effect in scopolamine-induced Wistar rat model of amnesia assessed as exploration time for object2 in acquisition trial at 0.15 mg/kg, po for 7 days and measured on day 8 by novel object recognition test (reference value: 15.63 sec); assay type: functional
[27] = test system: Rattus norvegicus; experiment: Memory enhancement effect in scopolamine-induced Wistar rat model of amnesia assessed as exploration time for familiar object in retention trial at 0.5 mg/kg, po for 7 days and measured on day 8 by novel object recognition test (reference value: 8.59 sec); assay type: functional
[28] = Drug level in Sprague-Dawley rat plasma at 0.15 mg/kg, po for 7 days; assay type: ADME, organism-based
[29] = test system: Rattus norvegicus; experiment: Improvement in social recognition scopolamine-induced Sprague-Dawley rat model of amnesia assessed as increase in reduction in social investigation time at 0.15 mg/kg, po for 7 days measured after 24 hrs (Rvb =6.59%); assay type: functional; design: scale not given: the % may be the effect or the level left
[30] = Drug level in scopolamine-induced Sprague-Dawley rat plasma at 0.05 mg/kg, po for 7 days; assay type: ADME, organism-based
[31] = Drug level in scopolamine-induced Sprague-Dawley rat brain at 0.05 mg/kg, po for 7 days; assay type: ADME, organism-based; conditions: read-out: Drug uptake
[32] = AUC(0 to infinity) in human at 7.5 to 100 mg; assay type: ADME
[33] = Elimination half life in human at 7.5 to 100 mg; assay type: ADME; conditions: read-out: beta t1/2

## CCC(=O)c1sc(-c2ccc(Cl)cc2)c(C)c1-c1ccc(S(N)(=O)=O)cc1
[1]
  Drug metabolism: 0.01 nmol/min/mg
[2]
  remaining at 0.5 h, 1 µM: 96%
[3]
  fraction unbound at 16 h, 5 µM: 0.0058
[4]
  fraction unbound at 16 h, 5 µM: 0.0058
[5]
  fraction unbound at 16 h, 5 µM: 0.0031
[6]
  AUC(0-t): 11 µM·h
[7]
  Cmax: 5000 nM
[8]
  Cmax: 3400 nM
[9]
  Tmax: 0.25 h
[10]
  Tmax: 1.5 h
[11]
  half-life: 45 h
[12]
  half-life: 88 h
[13]
  bioavailability: 60%
[14]
  concentration at 8 h: 6390 nM
[15]
  AUC(0-t): 35 µM·h
[16]
  inhibition (INH): Not Active
[17]
  inhibition (INH): Not Active
[18]
  Time: 25.56 s
[19]
  Time: 8.92 s
[20]
  Time: 13.41 s
[21]
  Time: 18.31 s
[22]
  Time: 16.55 s
[23]
  Activity_index: 0.45
[24]
  Time: 24.46 s
[25]
  concentration: 270 nM
[26]
  Time: 13.41 s
[27]
  Time: 6.63 s
[28]
  concentration at 168 h: 320 nM
[29]
  Activity: 55.83%
[30]
  concentration at 168 h: 60 nM
[31]
  concentration at 168 h: 250 nM
[32]
  AUC(0-inf): 261 to 24100 ng·h/mL
[33]
  half-life: 15.5 to 77 h
